This note sets out measurements from patent US20240165243A1, “EGFR DEGRADERS AND METHODS OF USE” (BeiGene Switzerland GmbH, priority 2021, published 2024).

The experiment deals with EGFR (Del19/T790M/C797S). Kind of experiment: Cell degradation HTRF assay, H1975-clone #28 cells. It is filed as cell-based. The conditions noted are these: H1975-clone #28 (Del19/T790M/C797S) cells, 16 h treatment; for DC50: HTRF, read-out: H1975-clone#28 DTC DC50; for H1975-clone#28 DTC Dmax (%): maximum percentage of degradation. The procedure: Cell Degradation of Example 124-189
H1975-#28 and H1975-#25 cells are treated with compounds diluted in 0.2% DMSO cell culture medium on day 2, incubate for 16 h, 37° C., 5% CO2. the final concentration of compounds in all assay is start with 10 uM, 5-fold dilution, total 8 doses were included.
After 16 h treatment, add HTRF lysis buffer to each well; seal the plate and incubate 1 hour at room temperature on a plate shaker; Once the cells are lysed, 16 μL of cell lysate are transferred to a PE 384-well HTRF detection plate; 4 μL of pre-mixed HTRF antibodies are added to each well; Cover the plate with a plate sealer, spin 1000 rpm for 1 min, Incubate overnight at room temperature; Read on BMG PheraStar with HTRF protocol (337 nm-665 nm-620 nm).
The inhibition (degradation) percentage of the compound was calculated by the following equation:
Inhibition percentage of Compound=100−100×(Signal−low control)/(High control−low control), wherein signal=each test compound group.
High control=Cell group with added DMSO and without compound, indicating microplate readings without EGFR degradation;
Dmax is the maximum percentage of inhibition (degradation).
The IC50 (DC50) value of a compound can be obtained by fitting the following equation
Y=Bottom+(TOP−Bottom)/(1+((IC50/X)^hillslope))
Wherein, X and Y are known values, and IC50, Hillslope, Top and Bottom are the parameters obtained by fitting with software. Y is the inhibition percentage (calculated from the equation), X is the concentration of the compound; IC50 is the concentration of the compound when the 50% inhibition is reached. The smaller the IC50 value is, the stronger the inhibitory ability of the compound is. Vice versa, the higher the IC50 value is, the weaker the ability the inhibitory ability of the compound is; Hillslope represents the slope of the fitted curve, generally around 1*; Bottom represents the minimum value of the curve obtained by data fitting, which is generally 0%±20%; Top represents the maximum value of the curve obtained by data fitting, which is generally 100%±20%. The experimental data were fitted by calculating and analyzing with Dotmatics data analysis software. When Dmax<50%, DC50 will be automatically assigned as larger than […].

`CCc1cc(Nc2ncc(Br)c(Nc3cnc4ccccc4c3P(C)(C)=O)n2)c(OC)cc1N1CCC(N2CCN(C(=O)C3CC4(C3)CN(c3cc(F)c(C5CCC(=O)NC5=O)c(F)c3)C4)CC2)CC1` (stereo not shown) [Example 178, 3-(4-(6-(4-(1-(4-((5-bromo-4-((4-(dimethylphosphoryl)quinolin-3-yl)amino)pyrimidin-2-yl)amino)-2-ethyl-5-methoxyphenyl)piperidin-4-yl)piperazine-1-carbonyl)-2-azaspiro[3.3]heptan-2-yl)-2,6-difluorophenyl)piperidine-2,6-dione]: the half-maximal degradation concentration (DC50) stood at 2.6 nM and the “H1975-clone#28 DTC Dmax (%)” value is listed as 67%.
As for `COc1cc(N2CCC(N3CCN(C(=O)C4CN(c5cccc6c5n(C)c(=O)n6C5CCC(=O)NC5=O)C4)CC3)CC2)c(C)cc1Nc1ncc(Br)c(Nc2cnc3ccccc3c2P(C)(C)=O)n1` (stereo not shown) [Example 179, 3-(4-(3-(4-(1-(4-((5-bromo-4-((4-(dimethylphosphoryl)quinolin-3-yl)amino)pyrimidin-2-yl)amino)-5-methoxy-2-methylphenyl)piperidin-4-yl)piperazine-1-carbonyl)azetidin-1-yl)-3-methyl-2-oxo-2,3-dihydro-1H-benzo[d]imidazol-1-yl)piperidine-2,6-dione], the DC50 is 2.6 nM and the “H1975-clone#28 DTC Dmax (%)” value worked out at 54%.
On to `CCc1cc(Nc2ncc(Br)c(Nc3cnc4ccccc4c3P(C)(C)=O)n2)c(OC)cc1N1CCC(N2CCN(CCc3c(F)ccc4c3n(C)c(=O)n4C3CCC(=O)NC3=O)CC2)CC1` (stereo not shown) [Example 159, 3-(4-(2-(4-(1-(4-((5-bromo-4-((4-(dimethylphosphoryl)quinolin-3-yl)amino)pyrimidin-2-yl)amino)-2-ethyl-5-methoxyphenyl)piperidin-4-yl)piperazin-1-yl)ethyl)-5-fluoro-3-methyl-2-oxo-2,3-dihydro-1H-benzo[d]imidazol-1-yl)piperidine-2,6-dione], for which the DC50 stood at 1.4 nM and the “H1975-clone#28 DTC Dmax (%)” value is 85%.
On to `CCOc1cc(N2CCC(N3CCN(CCc4cc(F)c(F)c5c4oc(=O)n5C4CCC(=O)NC4=O)CC3)CC2)c(CC)cc1Nc1ncc(Br)c(Nc2cnc3ccccc3c2P(C)(C)=O)n1` (stereo not shown) [Example 136, 3-(7-(2-(4-(1-(4-((5-bromo-4-((4-(dimethylphosphoryl)quinolin-3-yl)amino)pyrimidin-2-yl)amino)-5-ethoxy-2-ethylphenyl)piperidin-4-yl)piperazin-1-yl)ethyl)-4,5-difluoro-2-oxobenzo[d]oxazol-3(2H)-yl)piperidine-2,6-dione], for which the DC50 worked out at 0.6 nM and the “H1975-clone#28 DTC Dmax (%)” value is recorded as 81%.
Taken in the same sequence, the figures for `CCc1cc(Nc2ncc(Br)c(Nc3cnc4ccccc4c3P(C)(C)=O)n2)c(OC)cc1N1CCC(N2CCN(CCc3ccc4c(c3)oc(=O)n4C3CCC(=O)NC3=O)CC2)CC1` (stereo not shown) [Example 176, 3-(6-(2-(4-(1-(4-((5-bromo-4-((4-(dimethylphosphoryl)quinolin-3-yl)amino)pyrimidin-2-yl)amino)-2-ethyl-5-methoxyphenyl)piperidin-4-yl)piperazin-1-yl)ethyl)-2-oxobenzo[d]oxazol-3(2H)-yl)piperidine-2,6-dione] were 1.6 nM and 73%.
Consider `CCc1cc(Nc2ncc(Br)c(Nc3cnc4ccccc4c3P(C)(C)=O)n2)c(OC)cc1N1CCC(N2CCN(CCc3ccc4c(oc(=O)n4C4CCC(=O)NC4=O)c3F)CC2)CC1` (stereo not shown) [Example 142, 3-(6-(2-(4-(1-(4-((5-bromo-4-((4-(dimethylphosphoryl)quinolin-3-yl)amino)pyrimidin-2-yl)amino)-2-ethyl-5-methoxyphenyl)piperidin-4-yl)piperazin-1-yl)ethyl)-7-fluoro-2-oxobenzo[d]oxazol-3(2H)-yl)piperidine-2,6-dione], for which the 50% degradation concentration (DC50) stood at 0.9 nM and the “H1975-clone#28 DTC Dmax (%)” value was 81%.
Take `CCc1cc(Nc2ncc(Br)c(Nc3cnc4c(F)cccc4c3P(C)(C)=O)n2)c(OC)cc1N1CCC(N2CCN(CCc3cc(F)c(C4CCC(=O)NC4=O)c(F)c3)CC2)CC1` (stereo not shown) [Example 181, 3-(4-(2-(4-(1-(4-((5-bromo-4-((4-(dimethylphosphoryl)-8-fluoroquinolin-3-yl)amino)pyrimidin-2-yl)amino)-2-ethyl-5-methoxyphenyl)piperidin-4-yl)piperazin-1-yl)ethyl)-2,6-difluorophenyl)piperidine-2,6-dione]: the 50% degradation concentration (DC50) amounted to 4.2 nM and the “H1975-clone#28 DTC Dmax (%)” value is on record as 82%.
As to `CCOc1cc(N2CCC(N3CCN(CCc4cccc5c4n(C)c(=O)n5C4CCC(=O)NC4=O)CC3)CC2)c(CC)cc1Nc1ncc(Br)c(Nc2cnc3ccccc3c2P(C)(C)=O)n1` (stereo not shown) [Example 140, 3-(4-(2-(4-(1-(4-((5-bromo-4-((4-(dimethylphosphoryl)quinolin-3-yl)amino)pyrimidin-2-yl)amino)-5-ethoxy-2-ethylphenyl)piperidin-4-yl)piperazin-1-yl)ethyl)-3-methyl-2-oxo-2,3-dihydro-1H-benzo[d]imidazol-1-yl)piperidine-2,6-dione], the DC50 turned out to be 4.4 nM and the “H1975-clone#28 DTC Dmax (%)” value amounted to 84%.
`CCc1cc(Nc2ncc(Br)c(Nc3cnc4ccccc4c3P(C)(C)=O)n2)c(OCC(F)(F)F)cc1N1CCC(N2CCN(CCc3cc(F)c(C4CCC(=O)NC4=O)c(F)c3)CC2)CC1` (stereo not shown) [Example 187, 3-(4-(2-(4-(1-(4-((5-bromo-4-((4-(dimethylphosphoryl)quinolin-3-yl)amino)pyrimidin-2-yl)amino)-2-ethyl-5-(2,2,2-trifluoroethoxy)phenyl)piperidin-4-yl)piperazin-1-yl)ethyl)-2,6-difluorophenyl)piperidine-2,6-dione]: the 50% degradation concentration (DC50) turned out to be 3.3 nM and the “H1975-clone#28 DTC Dmax (%)” value is on record as 69%.
As for `CCc1cc(Nc2ncc(Br)c(Nc3cnc4ccccc4c3P(C)(C)=O)n2)c(OC)cc1N1CCC(N2CCN(CCc3ccc(F)c4c3oc(=O)n4[C@H]3CCC(=O)NC3=O)CC2)CC1` [Example 126, (S)-3-(7-(2-(4-(1-(4-((5-bromo-4-((4-(dimethylphosphoryl)quinolin-3-yl)amino)pyrimidin-2-yl)amino)-2-ethyl-5-methoxyphenyl)piperidin-4-yl)piperazin-1-yl)ethyl)-4-fluoro-2-oxobenzo[d]oxazol-3(2H)-yl)piperidine-2,6-dione], the 50% degradation concentration (DC50) worked out at 1.3 nM and the “H1975-clone#28 DTC Dmax (%)” value is 84%.
Taken in the same sequence, the figures for `CCc1cc(Nc2ncc(Br)c(Nc3cnc4ccccc4c3P(C)(C)=O)n2)c(OC)cc1N1CCC(N2CCN(C(=O)CN(C)c3cc(F)c(C4CCC(=O)NC4=O)c(F)c3)CC2)CC1` (stereo not shown) [Example 189, 3-(4-((2-(4-(1-(4-((5-bromo-4-((4-(dimethylphosphoryl)quinolin-3-yl)amino)pyrimidin-2-yl)amino)-2-ethyl-5-methoxyphenyl)piperidin-4-yl)piperazin-1-yl)-2-oxoethyl)(methyl)amino)-2,6-difluorophenyl)piperidine-2,6-dione] were 2.4 nM and 77%.
For `CCc1cc(Nc2ncc(Br)c(Nc3cnc4ccccc4c3P(C)(C)=O)n2)c(OC)cc1N1CCC(N2CCN([C@H]3C[C@H](c4cc(F)c(C5CCC(=O)NC5=O)c(F)c4)C3)CC2)CC1` (stereo partly shown) [Example 184, 3-(4-((1r,3r)-3-(4-(1-(4-((5-bromo-4-((4-(dimethylphosphoryl)quinolin-3-yl)amino)pyrimidin-2-yl)amino)-2-ethyl-5-methoxyphenyl)piperidin-4-yl)piperazin-1-yl)cyclobutyl)-2,6-difluorophenyl)piperidine-2,6-dione], the DC50 was 1.5 nM and the “H1975-clone#28 DTC Dmax (%)” value was found to be 81%.
Consider `CCc1cc(Nc2ncc(Br)c(Nc3cnc4ccc(F)cc4c3P(C)(C)=O)n2)c(OC)cc1N1CCC(N2CCN(CCc3cc(F)c(C4CCC(=O)NC4=O)c(F)c3)CC2)CC1` (stereo not shown) [Example 174, 3-(4-(2-(4-(1-(4-((5-bromo-4-((4-(dimethylphosphoryl)-6-fluoroquinolin-3-yl)amino)pyrimidin-2-yl)amino)-2-ethyl-5-methoxyphenyl)piperidin-4-yl)piperazin-1-yl)ethyl)-2,6-difluorophenyl)piperidine-2,6-dione], for which the 50% degradation concentration (DC50) came out at 1.8 nM and the “H1975-clone#28 DTC Dmax (%)” value is recorded as 80%.
Taken in the same sequence, the figures for `CCOc1cc(N2CCC(N3CCN(CCc4cc(F)c(C5CCC(=O)NC5=O)c(F)c4)CC3)CC2)c(C)cc1Nc1ncc(Br)c(Nc2cnc3ccccc3c2P(C)(C)=O)n1` (stereo not shown) [Example 183, 3-(4-(2-(4-(1-(4-((5-bromo-4-((4-(dimethylphosphoryl)quinolin-3-yl)amino)pyrimidin-2-yl)amino)-5-ethoxy-2-methylphenyl)piperidin-4-yl)piperazin-1-yl)ethyl)-2,6-difluorophenyl)piperidine-2,6-dione] were 4.6 nM and 73%.
